From US5519024A, “Quinolonecarboxylic acid derivatives and their use” (Takeda Chemical Industries, Ltd., priority 1993, dated 1996)

Target: T1, GPIIb/IIIa (Homo sapiens, UniProt P05106+P08514)
T1 construct: Purification of GPIIb/IIIa from HEL cells; endogenous in cells; host or cells: HEL cells (HEL 92.1.7, ATCC TIB180); endogenous complex solubilized with Triton X-100 and purified in house
Experiment: Inhibitory activity against binding of GPIIb/IIIa and fibrinogen
Settings: Table 2; for inhibition at 10 µM / inhibition at 1 µM: read-out: GPIIb/IIIa Fibrinogen Binding Inhibitory Activity
Method: Test Example 1: Inhibitory activity against binding of GPIIb/IIIa and fibrinogen
(1) Cultivation of human erythroleukemia-derived cell line (hereinafter referred to as HEL cells)
HEL cells (HEl92.1.7; ATCC No. TIB180) were purchased from ATCC (Rockville, Md., U.S.A.). The medium was RPMI medium (GIBCO Laboratories, Grand Island, N..Y, U.S.A.) containing 40 mM N-2-hydroxyethylpiperazine-N'-2-ethanesulfonic acid (hereinafter referred to as HEPES) (pH 7.0), 0.2% NaHCO3, 100 μg/ml kanamycin and 10% FCS. The cells were cultured in the presence of 5% CO2 at 37° C., with the medium replaced with a fresh medium to obtain a 4- to 5-fold dilution at intervals of 3 to 4 days.
(2) Purification of GPIIb/IIIa from HEL cells
GPIIb/IIIa was purified by a modification of the method of L. A. Fitzgerald et al. [J. Biol. Chem., 262, 3936 (1987)] as follows: All purification was conducted at room temperature, unless otherwise stated. At 7 days of cultivation, cells were collected from the HEL cell culture broth (cell suspension) by centrifugation (1,000 ×g, 10 minutes, 4° C.). After washing with 20 mM Tris-HCl (pH 7.5) containing 1 mM EDTA and 150 mM NaCl, the cells were suspended in a solubilizing buffer (20 mM Tris-HCl, 150 mM NaCl, 1% Triton X-100, 1 mM MgCl2, 1 mM CaCl2, 0.1 mM (p-amidinophenyl)methanesulfonyl fluoride (hereinafter referred to as APMSF), 10 nM leupeptin, 0.02% NaN3, pH 7.4), followed by gentle stirring at 4° C. for 30 minutes, to solubilize the GPIIb/IIIa. The suspension was centrifuged (100,000 ×g, 1 hour) at 4° C., and the cell debris removed, to yield a cell extract. The cell extract was passed through a Heparin-Sepharose CL-6B column (Pharmacia LKB) and a DEAE-Toyopearl 650M column (Tosoh), both previously equilibrated with a column buffer (20 mM Tris-HCl, 150 mM NaCl, 0.1% Triton X-100, 1 mM MgCl2, 1 mM CaCl2, 0.1 mM APMSF, 1 nM leupeptin, 0.05% NaN3, pH 7.4). The effluent was applied to a ConA-Sepharose column (Pharmacia LKB), previously equilibrated with the same column buffer as above, to adsorb the GPIIb/IIIa, followed by elution with the same column buffer but containing 0.5M methyl α-D-mannopyranoside. The eluted fraction was concentrated at 4° C. using an ultrafiltration apparatus (Amicon Corporation the fraction's molecular weight of 10,000), after which it was subjected to gel filtration through a Sephacryl S-300 column (Pharmacia LKB), previously equilibrated with the same column buffer, to yield a purified standard sample.
(3) Biotinization of human fibrinogen
Conducted by the method of I. F. Charo [I. F. Charo et al., J. Biol. Chem., 266, 1415 (1991)].
Human fibrinogen (Kabi Vitrum AB) was dissolved in PBS to 5 mg/ml and then dialyzed at 4° C. against 0.1M carbonate buffer (pH 8.2) containing 0.1M NaCl. After dialysis, insoluble substances were removed by centrifugation (100,000 ×g, 30 minutes), and the dialyzate was diluted to 1 mg/ml with the same buffer. To this dilution, sulfo-N-hydroxysuccinimidebiotin (Pierce Chemical Co.) was added to a final concentration of 0.2 mg/ml, followed by gentle mixing at room temperature for 30 minutes, to biotinize the fibrinogen. After completion of the reaction, the mixture was dialyzed against 0.05M Tris-HCl buffer (pH 7.4) containing 0.1M NaCl and 0.05% NaN3.
(4) Determination of inhibitory activity against fibrinogen binding
Conducted by a modification of the method of I. F. Charo [I. F. Charo et al., J. Biol. Chem., 266, 1415 (1991)] as follows: The purified GPIIb/IIIa was diluted to 1 μg/ml with buffer A (20 mM Tris-HCl, 150 mM NaCl, 1 mM CaCl2, 0.02% NaN3, pH 7.4). A 100 μl aliquot of this dilution was dispensed to a 96-well microplate (Maxisorp, produced by Nunc), and the plate kept standing at 4° C., to adsorb the GPIIb/IIIa to the microplate. Next, 150 μl of buffer B (35 mg/ml BSA, 50 mM Tris-HCl, 100 mM NaCl, 2 mM CaCl2, 0.02% NaN3, pH 7.4) was added, followed by 2 hours of blocking at 30° C. […]

T1 sequence (P08514 32-887 limits assumed): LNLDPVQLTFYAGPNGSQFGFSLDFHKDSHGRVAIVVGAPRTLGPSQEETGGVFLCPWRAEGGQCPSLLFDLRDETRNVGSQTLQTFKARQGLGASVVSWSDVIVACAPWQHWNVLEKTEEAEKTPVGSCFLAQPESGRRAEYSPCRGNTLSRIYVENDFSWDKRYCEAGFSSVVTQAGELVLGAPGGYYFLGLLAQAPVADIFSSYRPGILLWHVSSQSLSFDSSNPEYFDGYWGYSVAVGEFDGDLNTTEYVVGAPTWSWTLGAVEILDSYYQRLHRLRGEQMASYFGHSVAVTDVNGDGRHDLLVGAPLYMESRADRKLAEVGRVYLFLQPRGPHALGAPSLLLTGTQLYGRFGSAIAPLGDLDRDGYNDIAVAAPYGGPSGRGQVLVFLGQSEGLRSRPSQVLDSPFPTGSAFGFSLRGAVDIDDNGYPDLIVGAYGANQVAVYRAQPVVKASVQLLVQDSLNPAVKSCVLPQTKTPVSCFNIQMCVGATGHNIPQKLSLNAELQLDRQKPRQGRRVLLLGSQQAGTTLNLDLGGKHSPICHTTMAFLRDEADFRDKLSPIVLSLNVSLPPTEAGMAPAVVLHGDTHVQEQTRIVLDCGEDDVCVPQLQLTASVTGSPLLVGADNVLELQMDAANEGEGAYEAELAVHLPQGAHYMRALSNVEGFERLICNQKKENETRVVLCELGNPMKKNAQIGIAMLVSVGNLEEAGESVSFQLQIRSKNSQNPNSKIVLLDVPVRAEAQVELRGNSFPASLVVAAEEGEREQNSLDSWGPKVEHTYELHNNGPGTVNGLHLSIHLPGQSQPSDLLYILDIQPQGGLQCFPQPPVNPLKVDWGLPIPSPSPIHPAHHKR
T1 sequence (P08514 891-1039 limits assumed): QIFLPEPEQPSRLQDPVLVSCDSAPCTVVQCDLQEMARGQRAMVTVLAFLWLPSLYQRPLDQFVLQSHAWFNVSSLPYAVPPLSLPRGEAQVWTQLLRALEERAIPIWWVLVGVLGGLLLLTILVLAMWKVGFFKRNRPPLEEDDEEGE
T1 sequence (P05106 27-788): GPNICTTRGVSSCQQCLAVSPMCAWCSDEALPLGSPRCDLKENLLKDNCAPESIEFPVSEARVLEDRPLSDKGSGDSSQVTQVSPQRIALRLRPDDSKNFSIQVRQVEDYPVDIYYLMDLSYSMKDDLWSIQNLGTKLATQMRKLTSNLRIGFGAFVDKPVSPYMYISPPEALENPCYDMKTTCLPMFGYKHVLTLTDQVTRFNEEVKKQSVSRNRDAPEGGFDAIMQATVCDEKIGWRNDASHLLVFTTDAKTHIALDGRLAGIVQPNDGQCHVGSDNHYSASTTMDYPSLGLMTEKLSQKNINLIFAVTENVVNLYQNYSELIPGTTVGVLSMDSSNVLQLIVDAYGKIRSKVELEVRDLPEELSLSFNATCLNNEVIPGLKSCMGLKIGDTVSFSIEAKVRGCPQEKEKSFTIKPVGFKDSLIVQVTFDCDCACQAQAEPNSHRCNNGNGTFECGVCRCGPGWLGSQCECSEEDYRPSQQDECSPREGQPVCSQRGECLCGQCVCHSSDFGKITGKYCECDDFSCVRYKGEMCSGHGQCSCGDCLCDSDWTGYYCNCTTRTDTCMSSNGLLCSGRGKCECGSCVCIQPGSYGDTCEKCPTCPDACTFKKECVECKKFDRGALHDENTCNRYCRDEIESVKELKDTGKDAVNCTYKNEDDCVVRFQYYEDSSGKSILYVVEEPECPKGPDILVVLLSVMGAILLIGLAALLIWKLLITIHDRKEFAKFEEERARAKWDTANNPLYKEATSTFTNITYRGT

| Compound | inhibition at 10 µM (10^-5 M) | inhibition at 1 µM (10^-6 M) | GPIIb/IIIa Fibrinogen Binding Inhibitory Activity (10^-5 M) | GPIIb/IIIa Fibrinogen Binding Inhibitory Activity (10^-6 M) |
| --- | --- | --- | --- | --- |
| CNCCN(C)c1nc2c(cc1F)c(=O)c(C(=O)O)cn2C1CC1 [Compound 20] | 59.4% | 12% |  |  |
| CN(C)CCN(C)c1nc2c(cc1F)c(=O)c(C(=O)O)cn2C1CC1 [Compound 21] | 69.9% | 31.3% |  |  |
| O=C(O)c1cn(C2CC2)c2c(F)c(N3CCNCC3)c(F)cc2c1=O [Compound 22] | 72.7% | 39.8% |  |  |
| CCNCC1CCN(c2c(F)cc3c(=O)c(C(=O)O)cn(C4CC4)c3c2F)C1 (centres unmarked) [Compound 23] | 72.3% | 36.2% |  |  |
| CCN1CCCC1CNc1c(F)cc2c(=O)c(C(=O)O)cn(C3CC3)c2c1F (centres unmarked) [Compound 24] | 50% | 24.9% |  |  |
| CN(C)CCOC1CCN(c2c(F)cc3c(=O)c(C(=O)O)cn(C4CC4)c3c2F)C1 (centres unmarked) [Compound 25] | 87.8% | 67.7% |  |  |
| CN1CCN(C(=O)OC2CCN(c3c(F)cc4c(=O)c(C(=O)O)cn(C5CC5)c4c3F)C2)CC1 (centres unmarked) [Compound 26] | 94.1% | 71.4% |  |  |
| CCNCc1cn2c(n1)CN(c1c(F)cc3c(=O)c(C(=O)O)cn(C4CC4)c3c1F)CC2 [Compound 27] | 78.4% | 42.6% |  |  |
| CN(C)Cc1cn2c(n1)CN(c1c(F)cc3c(=O)c(C(=O)O)cn(C4CC4)c3c1F)CC2 [Compound 28, 1-Cyclopropyl-6,8-difluoro-7-(2-dimethylaminomethyl-5,6,7,8-tetrahydroimidazo[1,2-a]pyrazin-7-yl)-1,4-dihydro-4-oxoquinoline-3-carboxylic acid] | 95.8% | 73.3% |  |  |
| Cc1cnc2n1CCN(c1c(F)cc3c(=O)c(C(=O)O)cn(C4CC4)c3c1F)C2 [Compound 29] | 68.7% | 38.4% |  |  |
| O=C(O)c1cn(C2CC2)c2c(F)c(N3CCn4cc(CN5CCOCC5)nc4C3)c(F)cc2c1=O [Compound 30] | 54.8% | 24.2% |  |  |
| O=C(O)c1cn(C2CC2)c2c(F)c(N3CCN4CCC[C@@H]4C3)c(F)cc2c1=O [Compound 31] | 73% | 39.3% |  |  |
| O=C(O)c1cn(C2CC2)c2cc(N3CCN4CCC[C@H]4C3)c(F)cc2c1=O [Compound 32] | 71.2% | 39.5% |  |  |
| O=C(O)c1cn(C2CC2)c2c(F)c(N3CCN4CCC[C@@H]4C3)c(F)cc2c1=O [Compound 33] |  |  | 68.3% | 33.6% |
| O=C(O)c1cn(C2CC2)c2c(F)c(N3CCc4ccccc4C3)c(F)cc2c1=O [Compound 34] | 77% | 49.4% |  |  |
| NC1CN(c2c(F)cc3c(=O)c(C(=O)O)cn(C4CC4)c3c2F)Cc2ccccc21 (centres unmarked) [Compound 35] | 51.8% | 21.5% |  |  |
| O=C(O)c1cn(C2CC2)c2c(F)c(N3Cc4ccccc4C(CO)C3)c(F)cc2c1=O (centres unmarked) [Compound 36] | 56% | 36.3% |  |  |
| NCC1CN(c2c(F)cc3c(=O)c(C(=O)O)cn(C4CC4)c3c2F)Cc2ccccc21 (centres unmarked) [Compound 37] | 60.1% | 32.5% |  |  |
| NC1CCCN(c2c(F)cc3c(=O)c(C(=O)O)cn(C4CC4)c3c2F)C1 (centres unmarked) [Compound 38] | 50.8% | 31.9% |  |  |
